Laboratory results as given in US20230139171A1 (SITA Information Networking Computing UK Limited, priority 2019, published 2023).

Key:
Format in all cases: cell-based
human TLR7 = molecular target: T1, human TLR7 (Homo sapiens, UniProt Q9NYK1); assay: TLR7 inhibition reporter assay (HEK-Blue cells, SEAP reporter, gardiquimod stimulation); conditions: HEK-Blue cells overexpressing human TLR7, SEAP reporter, gardiquimod 7.5 μM; read-out: TLR7 IC50
T1 construct: host or cells: HEK-Blue cells
T1 sequence (Q9NYK1 27-1049): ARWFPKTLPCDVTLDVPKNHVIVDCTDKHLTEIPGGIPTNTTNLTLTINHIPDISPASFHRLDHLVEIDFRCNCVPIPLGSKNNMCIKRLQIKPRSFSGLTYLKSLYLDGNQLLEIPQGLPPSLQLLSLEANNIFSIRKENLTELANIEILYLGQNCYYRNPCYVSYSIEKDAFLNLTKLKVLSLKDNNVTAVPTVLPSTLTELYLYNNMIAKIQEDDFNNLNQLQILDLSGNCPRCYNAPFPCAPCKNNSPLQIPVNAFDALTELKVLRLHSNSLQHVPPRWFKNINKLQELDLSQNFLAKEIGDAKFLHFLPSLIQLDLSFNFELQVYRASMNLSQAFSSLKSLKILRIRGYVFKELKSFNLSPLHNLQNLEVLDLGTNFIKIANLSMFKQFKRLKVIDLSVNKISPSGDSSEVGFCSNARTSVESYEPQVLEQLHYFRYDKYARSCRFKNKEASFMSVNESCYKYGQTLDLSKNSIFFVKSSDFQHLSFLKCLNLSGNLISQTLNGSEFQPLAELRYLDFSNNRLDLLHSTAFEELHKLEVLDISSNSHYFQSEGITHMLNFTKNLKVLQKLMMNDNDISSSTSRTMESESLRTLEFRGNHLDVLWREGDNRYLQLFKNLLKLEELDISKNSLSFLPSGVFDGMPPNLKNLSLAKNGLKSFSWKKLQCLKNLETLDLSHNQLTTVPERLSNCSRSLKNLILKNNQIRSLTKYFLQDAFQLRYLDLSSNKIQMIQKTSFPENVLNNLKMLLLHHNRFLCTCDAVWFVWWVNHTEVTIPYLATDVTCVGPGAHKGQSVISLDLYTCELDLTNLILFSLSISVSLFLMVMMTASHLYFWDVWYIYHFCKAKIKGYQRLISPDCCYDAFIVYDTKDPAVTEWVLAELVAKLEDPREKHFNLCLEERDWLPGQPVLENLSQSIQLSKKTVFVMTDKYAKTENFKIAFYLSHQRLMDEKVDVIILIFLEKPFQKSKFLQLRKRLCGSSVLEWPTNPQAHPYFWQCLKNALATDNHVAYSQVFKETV
In short: (§1)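 Human TLR7/8/9 HEK-Blue reporter lines; dose range 0.05 nM–50 μM; 30 min RT preincubation; stimulus gardiquimod 7.5 μM / R848 15.9 μM / ODN2006 5 nM respectively; 22 h, 37 °C; SEAP detected colorimetrically.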

human TLR8 = molecular target: T2, human TLR8 (Homo sapiens, UniProt Q9NR97); assay: TLR8 inhibition reporter assay (HEK-Blue cells, SEAP reporter, R848 stimulation); conditions: HEK-Blue cells overexpressing human TLR8, SEAP reporter, R848 15.9 μM; read-out: TLR8 IC50
T2 construct: host or cells: HEK-Blue cells
T2 sequence (Q9NR97 27-1041): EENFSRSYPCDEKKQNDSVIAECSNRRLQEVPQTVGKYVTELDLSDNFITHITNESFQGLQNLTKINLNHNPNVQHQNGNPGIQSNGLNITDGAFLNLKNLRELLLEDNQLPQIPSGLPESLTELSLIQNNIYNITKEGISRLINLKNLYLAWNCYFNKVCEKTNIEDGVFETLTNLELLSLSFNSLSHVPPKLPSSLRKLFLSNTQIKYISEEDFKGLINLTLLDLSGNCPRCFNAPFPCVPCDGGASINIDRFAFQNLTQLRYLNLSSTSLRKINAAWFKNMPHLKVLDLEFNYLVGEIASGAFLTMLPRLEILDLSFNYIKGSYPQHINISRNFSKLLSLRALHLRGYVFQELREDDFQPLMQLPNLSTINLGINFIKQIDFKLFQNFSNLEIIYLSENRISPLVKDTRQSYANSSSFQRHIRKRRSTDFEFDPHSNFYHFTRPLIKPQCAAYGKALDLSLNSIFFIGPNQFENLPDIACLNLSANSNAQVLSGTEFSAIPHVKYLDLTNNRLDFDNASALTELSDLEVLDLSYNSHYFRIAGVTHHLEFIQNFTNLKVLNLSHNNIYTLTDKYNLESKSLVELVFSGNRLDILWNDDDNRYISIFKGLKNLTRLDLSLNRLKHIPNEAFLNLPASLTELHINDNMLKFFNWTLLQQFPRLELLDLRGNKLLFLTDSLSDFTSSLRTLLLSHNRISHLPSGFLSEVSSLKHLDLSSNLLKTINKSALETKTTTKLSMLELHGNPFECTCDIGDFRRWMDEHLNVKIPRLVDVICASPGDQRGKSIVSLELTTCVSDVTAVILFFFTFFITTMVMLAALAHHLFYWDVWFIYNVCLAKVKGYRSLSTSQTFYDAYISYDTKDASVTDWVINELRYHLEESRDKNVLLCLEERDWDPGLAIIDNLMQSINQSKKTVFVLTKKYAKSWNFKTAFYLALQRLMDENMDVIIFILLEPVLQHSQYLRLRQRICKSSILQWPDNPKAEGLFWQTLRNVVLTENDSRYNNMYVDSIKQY
In short: as §1

human TLR9 = molecular target: T3, human TLR9 (Homo sapiens, UniProt Q9NR96); assay: TLR9 inhibition reporter assay (HEK-Blue cells, SEAP reporter, ODN2006 stimulation); conditions: HEK-Blue cells overexpressing human TLR9, SEAP reporter, ODN2006 5 nM
T3 construct: host or cells: HEK-Blue cells
T3 sequence (Q9NR96 26-1032): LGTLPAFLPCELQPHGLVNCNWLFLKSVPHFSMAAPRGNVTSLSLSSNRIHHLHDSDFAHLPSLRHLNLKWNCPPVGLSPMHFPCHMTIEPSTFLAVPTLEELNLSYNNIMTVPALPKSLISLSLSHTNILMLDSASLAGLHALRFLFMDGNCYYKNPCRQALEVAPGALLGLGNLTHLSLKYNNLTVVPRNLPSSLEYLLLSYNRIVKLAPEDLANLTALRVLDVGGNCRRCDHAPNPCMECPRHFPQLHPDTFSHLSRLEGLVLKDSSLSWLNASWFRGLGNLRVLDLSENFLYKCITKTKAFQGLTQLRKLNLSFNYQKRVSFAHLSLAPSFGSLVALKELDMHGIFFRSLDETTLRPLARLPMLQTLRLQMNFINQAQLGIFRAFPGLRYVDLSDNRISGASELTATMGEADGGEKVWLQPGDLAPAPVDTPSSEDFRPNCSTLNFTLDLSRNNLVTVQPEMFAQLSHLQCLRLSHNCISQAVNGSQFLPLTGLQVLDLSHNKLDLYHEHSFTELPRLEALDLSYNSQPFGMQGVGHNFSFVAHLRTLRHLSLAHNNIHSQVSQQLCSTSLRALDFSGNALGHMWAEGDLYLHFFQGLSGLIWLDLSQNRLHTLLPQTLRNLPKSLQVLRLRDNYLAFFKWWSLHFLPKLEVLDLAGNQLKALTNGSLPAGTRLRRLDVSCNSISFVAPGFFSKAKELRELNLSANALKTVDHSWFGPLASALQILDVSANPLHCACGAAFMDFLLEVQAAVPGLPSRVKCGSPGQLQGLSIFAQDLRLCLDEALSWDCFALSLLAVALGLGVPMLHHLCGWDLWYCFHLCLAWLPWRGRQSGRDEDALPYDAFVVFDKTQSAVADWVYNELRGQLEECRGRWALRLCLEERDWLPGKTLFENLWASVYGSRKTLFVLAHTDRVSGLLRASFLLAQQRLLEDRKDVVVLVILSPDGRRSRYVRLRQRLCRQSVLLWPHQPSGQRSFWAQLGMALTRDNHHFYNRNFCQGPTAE
In short: as §1

Compound	IC50 (human TLR7) [nM]	IC50 (human TLR8) [nM]	IC50 (human TLR9) [µM]
COc1cc(-c2[nH]c3sc(C4CCC(N5CCNC(=O)C5)CC4)nc3c2C(C)C)cn2ncnc12 (single isomer, unassigned) [Example 120, 4-(4-(6-isopropyl-5-(8-methoxy-[1,2,4]triazolo[1,5-a]pyridin-6-yl)-4H-pyrrolo[3,2-d]thiazol-2-yl)cyclohexyl) piperazin-2-one]	4.19	16.7	> 50
COc1cc(-c2[nH]c3sc(C4CCC(N5CCNC(=O)C5)CC4)nc3c2C(C)C)cn2ncnc12 (single isomer, unassigned) [Example 121, 4-(4-(6-isopropyl-5-(8-methoxy-[1,2,4]triazolo[1,5-a]pyridin-6-yl)-4H-pyrrolo[3,2-d]thiazol-2-yl)cyclohexyl) piperazin-2-one]	8.51	57.3	> 50
COc1cc(-c2[nH]c3sc(C4CCC(N5CC(OC)C5)CC4)nc3c2C(C)C)cn2ncnc12 (single isomer, unassigned) [Example 122, 6-isopropyl-5-(8-methoxy-[1,2,4]triazolo[1,5-a]pyridin-6-yl)-2-(4-(3-methoxyazetidin-1-yl)cyclohexyl)-4H-pyrrolo[3,2-d]thiazole]	1.95	3.34	9.25
COc1cc(-c2[nH]c3sc(C4CCC(N5CC(OC)C5)CC4)nc3c2C(C)C)cn2ncnc12 (single isomer, unassigned) [Example 123, 6-isopropyl-5-(8-methoxy-[1,2,4]triazolo[1,5-a]pyridin-6-yl)-2-(4-(3-methoxyazetidin-1-yl)cyclohexyl)-4H-pyrrolo[3,2-d]thiazole]	5.09	16.8	6.29
COc1cc(-c2[nH]c3sc(C4CCC(N(C)C5COC5)CC4)nc3c2C(C)C)cn2ncnc12 (single isomer, unassigned) [Example 125, N-(4-(6-isopropyl-5-(8-methoxy-[1,2,4]triazolo[1,5-a]pyridin-6-yl)-4H-pyrrolo[3,2-d]thiazol-2-yl)cyclohexyl)-N-methyloxetan-3-amine]	5.8	25.9	5.4
Cc1cc(-c2[nH]c3sc(C4CCC(NC5COC5)CC4)nc3c2C(C)C)cn2ncnc12 (single isomer, unassigned) [Example 130, N-(4-(6-isopropyl-5-(8-methyl-[1,2,4]triazolo[1,5-a]pyridin-6-yl)-4H-pyrrolo[3,2-d]thiazol-2-yl)cyclohexyl)oxetan-3-amine]	0.45	2.42	11.5
Cc1cc(-c2[nH]c3sc(C4CCC(NC5COC5)CC4)nc3c2C(C)C)cn2ncnc12 (single isomer, unassigned) [Example 131, N-(4-(6-isopropyl-5-(8-methyl-[1,2,4]triazolo[1,5-a]pyridin-6-yl)-4H-pyrrolo[3,2-d]thiazol-2-yl)cyclohexyl)oxetan-3-amine]	7.48	32.6	10.9
CCN(C)C1CCC(c2nc3c(C(C)C)c(-c4cc(C)c5ncnn5c4)[nH]c3s2)CC1 (single isomer, unassigned) [Example 132, N-ethyl-4-(6-isopropyl-5-(8-methyl-[1,2,4]triazolo[1,5-a]pyridin-6-yl)-4H-pyrrolo[3,2-d]thiazol-2-yl)-N-methylcyclohexan-1-amine]	0.36	2.73	2.14
Cc1cc(-c2[nH]c3sc(C4CCC(NCC5(C)COC5)CC4)nc3c2C(C)C)cn2ncnc12 (single isomer, unassigned) [Example 134, 4-(6-isopropyl-5-(8-methyl-[1,2,4]triazolo[1,5-a]pyridin-6-yl)-4H-pyrrolo[3,2-d]thiazol-2-yl)-N-((3-methyloxetan-3-yl)methyl)cyclohexan-1-amine]	1.23	1.28	16.1
Cc1cc(-c2[nH]c3sc(C4CCC(NCC5(C)COC5)CC4)nc3c2C(C)C)cn2ncnc12 (single isomer, unassigned) [Example 135, 4-(6-isopropyl-5-(8-methyl-[1,2,4]triazolo[1,5-a]pyridin-6-yl)-4H-pyrrolo[3,2-d]thiazol-2-yl)-N-((3-methyloxetan-3-yl)methyl)cyclohexan-1-amine]	6.8	38.9	22.4
Cc1cc(-c2[nH]c3sc(C4CCC(N5CC6(COC6)C5)CC4)nc3c2C(C)C)cn2ncnc12 (single isomer, unassigned) [Example 136, 6-(4-(6-isopropyl-5-(8-methyl-[1,2,4]triazolo[1,5-a]pyridin-6-yl)-4H-pyrrolo[3,2-d]thiazol-2-yl)cyclohexyl)-2-oxa-6-azaspiro[3.3]heptane]	1.69	4.36	42.8
